Results on one substance are retold here after patent publication US20220143148A1, “COMPOSITIONS AND METHODS FOR MODULATING CGRP SIGNALING TO REGULATE INTESTINAL INNATE LYMPHOID CELLS” (The Broad Institute, Inc., priority 2019, published 2022).

One experiment relates to KLRG1+ ILC2s. The experiment is described as follows: IL-25-induced in vivo ILC2 activation model. Set-up: species or system mouse. An excerpt: (§1) Intraperitoneal administration of α-CGRP impaired IL-25-induced expansion of KLRG1^+ ILC2s (FIGS. 5B and 12A), consistent with the in vitro results. Recent work has shown that intestinal KLRG1^+ ILC2s can migrate to mesenteric lymph nodes (mLNs) and other tissues during inflammation via sphingosine 1-phosphate (S1P)-mediated chemotaxis (Huang et al., 2018). To determine whether α-CGRP primarily impacts intestinal or mLN ILC2s, Applicants relied on the fact that intestinal GATA3^+ ILC2s are generally phenotypically KLRG1^+ST2^− (data not shown), whereas mLN ILC2s are mainly ST2^+ at steady state (FIG. 5C). IL-25 administration increased the frequency of both KLRG1^+ST2^− inflammatory ILC2s and ST2^+ ILC2s in mLNs (FIGS. 5C-E and 12B). […] Thus, α-CGRP preferentially regulates the response of intestinal KLRG1^+ST2^− ILC2s. […] Taken together, α-CGRP antagonized expansion of intestinal KLRG1^+ ILC2s in two different type 2 inflammatory models.
To activate ILC2s in vivo, 200 ng of IL-25 was intraperitoneally injected into 7-10 weeks old mice daily for two days. 1 μg α-CGRP was injected together as noted.
Flow cytometry and cell sorting. Cells were washed and suspended in MACS buffer (pH 7.4; PBS plus 2% FCS and 2 mM EDTA). Nonspecific antibody binding was blocked with CD16/CD32 (2.4G2) antibody for 15 min on ice. Cells were then stained with antibody cocktails for 30 min at 4° C. Lineage-positive cells were excluded for analyzing ILCs by staining for CD3ε (145-2C11), CD5 (53-7.3), CD19 (6D5), CD11b (M1/70), CD8 (53-6.7), CD11c (N418), Gr-1 (RB6-8C5), TCRγδ (eBioGL3 (GL-3, GL3)) and TCRβ (H57-597). To analyze mast cells, lineage-positive cells were excluded by staining for CD3ε, CD5, CD19, CD11c and SiglecF (E50-2440). For surface staining, antibodies for KLRG1 (2F1), CD45 (30-F11), CD127 (A7R34), CCR6 (29-2L17), NKp46 (29A1.4), CD90.2 (53-2.1), FcεRI (Mar-1), IgD (11-26c.2a) and ST2 (DJ8) were used. For intracellular staining, cells were fixed and permeabilized using the Foxp3 transcription factor staining buffer set, followed by staining with anti-GATA-3 (TWAJ) or anti-RORγt (B2D) antibodies. Dead cells were excluded with 7-AAD or Fixable Viability Dye eFluor 780. Flow cytometry was performed on Cytoflex (Beckman Coulter) and analyzed with FlowJo software. Sorting was performed with the SH800S Cell Sorter (Sony Biotechnology).
Immunofluorescence staining and imaging. The small intestines were fixed in 2% PFA, embedded in O.C.T. Compound and sliced into 10 μm by frozen section. The slides were blocked with 0.1% Triton X-100, 2% FCS and donkey serum. […] The images were analyzed with ImageJ.

In the next experiment the test system is intestinal ILC2s. Put plainly: OVA food allergy model with intragastric α-CGRP. It counts as in vivo, mouse. Conditions: α-CGRP intragastrically together with OVA, pre-sensitized mice; P=0.02, P=0.009, t-test.
From the text: as §1
To induce allergic reaction to OVA, 6 to 7 weeks old mice were sensitized twice, two weeks apart, with 50 μg of OVA plus 1 mg of aluminum potassium sulfate adjuvant via intraperitoneal injection. Two weeks later, mice were orally administered with 50 mg of OVA on every other day for a total of five times. […]
Flow cytometry and cell sorting. […] Flow cytometry was performed on Cytoflex (Beckman Coulter) and analyzed with FlowJo software. […]

“α-CGRP: neuropeptide alpha-calcitonin gene-related peptide, encoded by exon 5 of Calca; administered as peptide”: the “frequency of KLRG1+ST2− ILC2s in mLNs” value in the experiment on KLRG1+ ILC2s (IL-25 co-administered with α-CGRP) is reported as “reduced”. The “IL-25-induced expansion of KLRG1+ ILC2s” value in the experiment with KLRG1+ ILC2s (intraperitoneal α-CGRP with IL-25, small intestine, IF) is on record as “impaired”. In the experiment on intestinal ILC2s, the “expansion of intestinal ILC2s in a food allergy model” value is given as “significantly suppressed”.
